Reference: PMC8879095, “UHPLC-MS/MS Analysis of Antibiotics Transfer and Concentrations in Porcine Oral Fluid after Intramuscular Application” (Pharmaceuticals, 2022)
Like-named read-outs stand apart in the source and are kept apart here.

Key:
[1] = cited from earlier work
[2] = Antibiotic concentrations in porcine oral fluid after intramuscular application (UHPLC-MS/MS); assay type: in vivo; details: pigs, i.m.; for concentration at 1 d / concentration at 2 d / concentration at 3 d / concentration at 4 d / concentration at 5 d / concentration at 6 d / concentration at 7 d / concentration at 8 d / concentration at 9 d / concentration at 10 d / concentration at 11 d / concentration at 12 d / concentration at 13 d / concentration at 14 d / concentration at 15 d / concentration at 16 d / concentration at 17 d / concentration at 18 d / concentration at 19 d / concentration at 20 d / concentration at 21 d / concentration at 22 d / concentration at 23 d / concentration at 24 d / concentration at 25 d / concentration at 26 d / concentration at 27 d / concentration at 28 d / concentration at 29 d / concentration at 30 d: male, (Landrace × Yorkshire) × Duroc crossbred (DanBred sows), pig, intramuscular; for concentration at 1 d / concentration at 2 d / concentration at 3 d / concentration at 4 d / concentration at 5 d / concentration at 6 d / concentration at 7 d / concentration at 8 d / concentration at 9 d / concentration at 10 d / concentration at 11 d / concentration at 12 d / concentration at 13 d / concentration at 14 d / concentration at 15 d / concentration at 16 d / concentration at 17 d / concentration at 18 d / concentration at 19 d / concentration at 20 d / concentration at 21 d / concentration at 22 d / concentration at 23 d / concentration at 24 d / concentration at 25 d / concentration at 26 d / concentration at 27 d / concentration at 28 d / concentration at 29 d / concentration at 30 d / concentration in oral fluid at withdrawal period / Avarage Concentrations in oral fluid: oral fluid; for concentration in oral fluid at withdrawal period: at the end of the withdrawal period for tissues of each drug (Table 3); for distribution to oral fluid: conclusion in words
Protocol: All animals were born in the sow farm (8000 DanBred sows) located in Northern Poland, after crossing ♀(♂Landrace × ♀Yorskshire) × ♂Duroc. Piglets were weaned after 4 weeks of lactation with an average weight of 6 kg and then moved to the weaner stable (23,000 weaners). After the next 7 weeks, animals were transported to the 9000-places fattening farm with an average body weight of 28 kg, where the trial was performed. All farms in the aforementioned three-phase model used weekly batches and an all-in all-out system. Specialist veterinary and production management care were provided in each location.
For the purpose of the study, 240 immunologically castrated boars were divided into 8 groups, 30 animals in each pen. For the control group, 30 pigs were used in separate pens. Their initial body weight was between 40 and 60 kg. Pigs were housed at 20–25 °C. Fatteners were fed ad libitum with antimicrobial-free water and feed provided by feeders throughout the study. Before the experiment, water and feed were checked for antimicrobials, and no antimicrobial treatments were administered to these pigs before. All animals in one pen were treated due to the same health issue using disposable needles and the same drug and dosage. Pens were separated from each other with concrete walls. The drugs and dosage administered to each experimental group with an indication of withdrawal period for tissues are listed in Table 3. The oral fluid samples were collected using three cotton ropes (70 cm length with 1 cm diameter) in each pen suspended separately for 25 min on the front wall of the pen with bottoms at the pigs’ shoulder height, away from water and feed.
The research material was one pooled sample of oral fluid from 10 pigs, in triplicate, per pen. Ropes were removed immediately after collection. The first oral fluid sample was collected 24 h after the first injection. The collection of each subsequent sample took place at the same time (11:30 A.M.) for 35 consecutive days. Additionally, oral fluid samples were collected from pigs not treated with any antibiotics. Oral fluid from each pen was pooled into one 50-mL Falcon plastic tube and centrifuged at 9447× rcf for 15 min. Centrifuged material was transferred to a 15 mL plastic tube and frozen at −20 °C until analysis.
Before the analysis, the oral fluid samples were centrifuged at 9447× rcf. Next, an aliquot (1 mL) of oral fluid was placed into a 2 mL polypropylene centrifuge tube, and the 30 µL of the internal standard at the concentration of 2 µg/mL was added. For the extraction of analysed antibiotics, 600 µL of 0.5% formic acid was added, vortexed for 30 s and centrifuged for 10 min at 9447× rcf. Then, the supernatant was filtered through a […] PVDF filter into an amber glass vial before chromatographic analysis.
The mass spectrometry detection was operated in the positive ESI mode with multiple reaction monitoring (MRM).

[3] = first day of medication (abstract), read-out: concentration in oral fluid on the first day of medication
[4] = time 1 d (24 h after first injection), treatment period, read-out: Avarage Concentrations in oral fluid
[5] = treatment period, read-out: Avarage Concentrations in oral fluid
[6] = time 4 d, posttreatment, read-out: Avarage Concentrations in oral fluid
[7] = posttreatment, read-out: Avarage Concentrations in oral fluid
[8] = time 30 d, posttreatment, read-out: Avarage Concentrations in oral fluid
[9] = time 1 d (24 h after first injection), treatment period

SMILES | concentration at 1 d [2, 3] [ng/g] | concentration at 1 d [2, 4] [ng/mL] | concentration at 2 d [2, 5] [ng/mL] | concentration at 3 d [2, 5] [ng/mL] | concentration at 4 d [2, 6] [ng/mL] | concentration at 5 d [2, 7] [ng/mL] | concentration at 6 d [2, 7] [ng/mL] | concentration at 7 d [2, 7] [ng/mL] | concentration at 8 d [2, 7] [ng/mL] | concentration at 9 d [2, 7] [ng/mL] | concentration at 10 d [2, 7] [ng/mL] | concentration at 11 d [2, 7] [ng/mL] | concentration at 12 d [2, 7] [ng/mL] | concentration at 13 d [2, 7] [ng/mL] | concentration at 14 d [2, 7] [ng/mL] | concentration at 15 d [2, 7] [ng/mL] | concentration at 16 d [2, 7] [ng/mL] | concentration at 17 d [2, 7] [ng/mL] | concentration at 18 d [2, 7] [ng/mL] | concentration at 19 d [2, 7] [ng/mL] | also measured
COc1ncnc(NS(=O)(=O)c2ccc(N)cc2)c1OC [SDX, sulfadoxine] | 22300 | 22300 | 5860 ± 1160 | 4570 ± 766 | 4010 | 5780 ± 788 | 4070 ± 669 | 310 ± 98 | 392 ± 88 | 386 ± 72 | 134 ± 49 | 247 ± 62 | 74.8 ± 21 | 68 ± 16 | 77.4 ± 18 | 69.8 ± 14 | 78.4 ± 12 | 47 ± 18 | 44.2 ± 16 | 58.4 ± 11 | pKa ([1]; weak organic acid): 6.16; concentration at 20 d [2, 7]: 76.4 ± 14 ng/mL; concentration at 21 d [2, 7]: 21.4 ± 7.3 ng/mL; concentration at 22 d [2, 7]: 25.3 ± 6.9 ng/mL; concentration at 23 d [2, 7]: 15.9 ± 7.2 ng/mL; concentration at 24 d [2, 7]: 37 ± 5.4 ng/mL; concentration at 25 d [2, 7]: 31.5 ± 6.3 ng/mL; concentration at 26 d [2, 7]: 19.1 ± 4.2 ng/mL; concentration at 27 d [2, 7]: 19.3 ± 3.7 ng/mL; concentration at 28 d [2, 7]: 35 ± 8.1 ng/mL; concentration at 29 d [2, 7]: 30.4 ± 7.6 ng/mL; concentration at 30 d [2, 8]: 23 ng/mL; concentration in oral fluid at withdrawal period [2]: 247 ng/mL; Avarage Concentrations in oral fluid [2, 9]: 22,300 ± 3555 µg/L; Avarage Concentrations in oral fluid ([2]; time 4 d, posttreatment): 4010 ± 601 µg/L; Avarage Concentrations in oral fluid ([2]; time 30 d, posttreatment): 23.0 ± 6.2 µg/L; distribution to oral fluid [2]: high distribution
C=C[C@]1(C)C[C@@H](OC(=O)CSCCN(CC)CC)[C@]2(C)[C@H](C)CC[C@]3(CCC(=O)[C@H]32)[C@@H](C)[C@@H]1O [TIAM, tiamulin] | 7600 | 7600 | 2520 ± 355 | 2460 ± 311 | 1560 | 1540 ± 233 | 2960 ± 299 | 2570 ± 254 | 875 ± 156 | 567 ± 111 | 621 ± 124 | 279 ± 66 | 254 ± 69 | 138 ± 43 | 269 ± 71 | 156 ± 41 | 279 ± 68 | 182 ± 49 | 176 ± 52 | 202 ± 45 | pKa [1]: 7.6; concentration at 20 d [2, 7]: 133 ± 36 ng/mL; concentration at 21 d [2, 7]: 148 ± 32 ng/mL; concentration at 22 d [2, 7]: 220 ± 44 ng/mL; concentration at 23 d [2, 7]: 146 ± 29 ng/mL; concentration at 24 d [2, 7]: 310 ± 55 ng/mL; concentration at 25 d [2, 7]: 193 ± 33 ng/mL; concentration at 26 d [2, 7]: 66.4 ± 12 ng/mL; concentration at 27 d [2, 7]: 54.3 ± 14 ng/mL; concentration at 28 d [2, 7]: 35.8 ± 17 ng/mL; concentration at 29 d [2, 7]: 40.6 ± 21 ng/mL; concentration at 30 d [2, 8]: 46.9 ng/mL; Avarage Concentrations in oral fluid [2, 9]: 7600 ± 1055 µg/L; Avarage Concentrations in oral fluid ([2]; time 4 d, posttreatment): 1560 ± 225 µg/L; Avarage Concentrations in oral fluid ([2]; time 30 d, posttreatment): 46.9 ± 19 µg/L; distribution to oral fluid [2]: high distribution
COc1cc(Cc2cnc(N)nc2N)cc(OC)c1OC [TRMP, trimethoprim] | 14100 | 14100 | 2810 ± 556 | 1810 ± 311 | 1030 ± 221 | 1400 ± 255 | 1280 ± 198 | 264 ± 73 | 125 ± 41 | 128 ± 38 | 36.4 ± 15 | 67.1 ± 20 | 25.2 ± 9.6 | 22 ± 8.7 | 22.1 ± 6.4 | 31.6 ± 11 | 24.2 ± 8.2 | 18.9 ± 4.8 | 13 ± 3.6 | 42 ± 14 | concentration at 20 d [2, 7]: 36.4 ± 10 ng/mL; concentration at 21 d [2, 7]: 10.2 ± 4.4 ng/mL; concentration at 22 d [2, 7]: 46.4 ± 16 ng/mL; concentration at 23 d [2, 7]: 6.9 ± 2.4 ng/mL; concentration at 24 d [2, 7]: 19.4 ± 5.5 ng/mL; concentration at 25 d [2, 7]: 17.8 ± 4.1 ng/mL; concentration at 26 d [2, 7]: 15.9 ± 3.6 ng/mL; concentration at 27 d [2, 7]: 10.4 ± 2.9 ng/mL; concentration at 28 d [2, 7]: 16.5 ± 6.2 ng/mL; concentration at 29 d [2, 7]: 21.2 ± 9.4 ng/mL; concentration at 30 d [2, 8]: 22.4 ng/mL; concentration in oral fluid at withdrawal period [2]: 67.1 ng/mL; Avarage Concentrations in oral fluid [2, 9]: 14,100 ± 2556 µg/L; Avarage Concentrations in oral fluid ([2]; time 30 d, posttreatment): 22.4 ± 9.1 µg/L; distribution to oral fluid [2]: high distribution
